Experimental data: patent US5994365A, “Substituted diazaanthracene compounds having pharmaceutical utility” (Diazans Limited, priority 1998, dated 1999)
Converted amounts (≈) assume the structure as drawn. Read-outs that look alike come from different tables or passages of the source.

Assays:
[1] = system: Escherichia coli ATCC 25922; experiment: Macrobroth dilution testing for antimicrobial activity (MIC); format: cell-based; conditions: ATCC25922, 18 h, macrodilution, read-out: Minimum Inhibitory Concentration
Procedure: (§1) A working antimicrobial solution was prepared by diluting the test compound in Mueller Hinton Broth (MHB) to the highest final concentration desired. The test was performed in 13×100 mm test tubes. Two mL of the working solution of test compound were added to test tube 1 of the dilution series. To each remaining tube, 1.0 mL of MHB was added. A sterile pipette was used to transfer 1.0 mL from tube 1 to tube 2. After thorough mixing 1.0 mL was transferred (with a separate pipette for this and each succeeding transfer) to tube 3. This process was continued to the next to last tube from which 1.0 mL was removed and discarded. The last tube received no antimicrobial agent and served as a growth control. The inoculum was prepared and adjusted to contain […] by adjusting the turbidity of a broth culture to match to 0.5 McFarland standard. It was then further diluted 1:200 in broth. One mL of the adjusted inoculum was added to each test tube. The final concentrations of antimicrobial agents in this test were half those of the initial dilution series because of the addition of an equal volume of inoculum in broth. Tubes were incubated at 35° C. for 18 hours. […] A very faint haziness or a small button is usually disregarded.

[2] = system: Pseudomonas aeruginosa ATCC 27853; experiment: as above; format: cell-based; conditions: ATCC27853, 18 h, macrodilution, read-out: Minimum Inhibitory Concentration
Procedure: as §1

[3] = system: Staphlococcus aureus ATCC 25923; experiment: as above; format: cell-based; conditions: Staphylococcus aureus, ATCC25923, 18 h, macrodilution, read-out: Minimum Inhibitory Concentration
Procedure: as §1

S. aureus ATCC 25923 [4] = experiment: Microbroth dilution assay of antimicrobial susceptibility (MIC); format: cell-based, Staphylococcus aureus; conditions: microdilution, CAMHB, 37° C.
Procedure: It is described below, using E. coli ATCC® 25922, S. aureus ATCC® 25923, and P. aeruginosa ATCC® 27853. Prepare 0.0128 g DAA in 10 mL dH2 O (or 95% EtOH, methanol or DMSO if H2 O insoluble)=1280 μg/mL (stock solution). Dilute DAA stock solution 1:10 with CAMHB (Cation-Adjusted Mueller Hinton Broth): 0.5 mL DAA stock solution+4.5 mL CAMHB=128 μg/mL (DAA working solution). Pipette 100 μl of sterile CAMHB per well into columns 2-12 of rows A-G using Eppendorf repeater pipette. Pipette 100 μl per well of sterile-filtered DAA working solution into columns 1 and 2 of rows A, C, E, G using Jensen electric pipette. Mix and transfer 100 μl from column 2 to 3 of rows A, C, E, G using Jensen pipette. Repeat to column 12 then discard 100 μl from column 12. Rows B, D and F are positive growth control lanes for each organism and contain only CAMHB and the organism--no DAA. Row H is the media additive control lane, if necessary (e.g. MeOH, EtOH, DMSO etc.). The concentration of the media additive is obtained by doing a 1:10 dilution of the additive with CAMHB (0.5 mL additive+4.5 mL CAMHB). Row G is considered to be "negative growth control" and is loaded with only CAMHB and the DAA. Inoculate 0.5 mL TSB (Trypticase Soy Broth) tubes with 3 single colonies each of E. coli, S. aureus, and P. Aeruginosa from TSA plates using sterile needle. Incubate @ 37° C. for 4-6 hr. Measure out 100 mL CAMHB using the sterile 100 mL volumetric flask. Pour the excess into a sterile reagent reservoir. Pipette 0.5 mL and discard, leaving 99.5 mL in each of the 3-Erlenmeyer flasks. Set aside. Use the excess CAMHB for the 1:10 dilution of inoculum: 0.5 mL inoculum+4.5 mL CAMHB. Perform a 1:200 dilution of inoculum: 0.5 mL of 1:10 diluted inoculum+99.5 mL CAMHB from previous step. Pipette 100 μl (using Eppendorf repeater pipette) E. coli into each well in columns 1-12 of rows A and B and columns 1-4 of row H (if media additive control lane necessary). Pipette 100 μl P. aeruginosa into each well in columns 1-12 of rows C and D and columns 5-8 of row H (if media additive control lane is necessary). Pipette 100 μl S. aureus into each well in columns 1-12 of rows E and F and columns 9-12 of row H (if media additive control lane is necessary). Incubate microtiter plates @ 37° C. for 18 hrs. The lowest concentration of antimicrobial agent that results in significant inhibition of visible growth represents the MIC (Minimal Inhibitory Concentration).

C. albicans ATCC 90028 = experiment: In vitro antifungal susceptibility assay adapted from NCCLS (MIC); format: cell-based, Candida albicans
Procedure: (§2) Compounds of the invention also display antifungal activities. […] Using C. albicans ATCC® 90028, C. neoformans ATCC® 90112 and T. glabrata ATCC® 90030, the protocol is performed as follows:
(§3) Prepare 0.0128 g DAA in 10 mL dH2 O (or other if H2 O insoluble)=1280 μg/mL (stock solution). Dilute DAA stock solution 1:10 with RPMI-1640: 0.5 mL DAA stock solution+4.5 mL RPMI-1640=128 μg/mL (DAA working solution).
(§4) Inoculate rows A-H, columns 2-12 with 100 μl of RPMI-1640 using Eppendorf repeater pipette. Inoculate rows A-C columns 1 and 2 with 100 μl of 1st antibiotic (i.e. DAA-1) using electronic pipette. Inoculate rows E-G columns 1 and 2 with 100 μl of 2nd antibiotic (i.e. DAA-2) using electronic pipette. […] Plate is now ready for fungal inocula, which involves pipetting 100 μl of the inocula into all wells in rows A-C columns 1-12 and rows E-G columns 1-12. […]
(§5) Five colonies greater than 1 mm in diameter are suspended in a spectrophotometer cuvette containing 5 mL of sterile, 0.85% saline (colonies are obtained from 24 hrs. old Candida and Torulopsis cultures, while Cryptococcus colonies are chosen from 48 hrs. old cultures). Spectrophotometer is set to read % transmission at a wavelength of 530 nm, and is standardized using two cuvettes. […] Fungal inoculum is now prepared and ready to be introduced to microplates. […]

ASPC-1 = experiment: Antineoplastic activity, fluorescence based live-cell/dead cell ratio; conditions: Homo sapiens, ASPC1, ASPC-1
Procedure: (§6) Values of IC50 (inhibitory concentration 50%) were calculated from the relative percent transmitted light as detected on a fluorescence 96 well plate reader.

ZR-75-1 = experiment: as above; conditions: Homo sapiens, ZR-75-1, ZR-75-1
Procedure: as §6

41-SK = experiment: as above; parameters: species or system human
Procedure: as §6

Hymenolepis nata = conditions: U.S. Pat. No. 3,862,945; cited from earlier work
S. aureus = conditions: taken from Antibiotics in Laboratory Medicine; cited from earlier work
E. coli ATCC 25922 [5] = experiment: Microbroth dilution assay of antimicrobial susceptibility (MIC); format: cell-based; conditions: Escherichia coli, ATCC25922; microdilution, CAMHB, 37° C., 18 hrs
Procedure: It is described below, using E. coli ATCC® 25922, S. aureus ATCC® 25923, and P. aeruginosa ATCC® 27853. Prepare 0.0128 g DAA in 10 mL dH2 O (or 95% EtOH, methanol or DMSO if H2 O insoluble)=1280 μg/mL (stock solution). Dilute DAA stock solution 1:10 with CAMHB (Cation-Adjusted Mueller Hinton Broth): 0.5 mL DAA stock solution+4.5 mL CAMHB=128 μg/mL (DAA working solution). Pipette 100 μl of sterile CAMHB per well into columns 2-12 of rows A-G using Eppendorf repeater pipette. Pipette 100 μl per well of sterile-filtered DAA working solution into columns 1 and 2 of rows A, C, E, G using Jensen electric pipette. Mix and transfer 100 μl from column 2 to 3 of rows A, C, E, G using Jensen pipette. Repeat to column 12 then discard 100 μl from column 12. Rows B, D and F are positive growth control lanes for each organism and contain only CAMHB and the organism--no DAA. Row H is the media additive control lane, if necessary (e.g. MeOH, EtOH, DMSO etc.). The concentration of the media additive is obtained by doing a 1:10 dilution of the additive with CAMHB (0.5 mL additive+4.5 mL CAMHB). Row G is considered to be "negative growth control" and is loaded with only CAMHB and the DAA. Inoculate 0.5 mL TSB (Trypticase Soy Broth) tubes with 3 single colonies each of E. coli, S. aureus, and P. Aeruginosa from TSA plates using sterile needle. Incubate @ 37° C. for 4-6 hr. […]

C. neoformans ATCC 90112 = experiment: In vitro antifungal susceptibility assay adapted from NCCLS (MIC); format: cell-based, Cryptococcus neoformans; conditions: Cryptococcus neoformans, ATCC90112; RPMI-1640; read-out: MIC
Procedure: as §2, §3, §4, §5

T. glabrata ATCC 90030 = experiment: as above; format: cell-based, Torulopsis glabrata; conditions: Nakaseomyces glabratus, ATCC90030; RPMI-1640; read-out: MIC
Procedure: as §2, §3, §4, §5

E. coli ATCC 25922 [6] = conditions: control limits, Gentamicin 10 mcg disk; cited from earlier work
S. aureus ATCC 25923 [7] = conditions: control limits, Gentamicin 10 mcg disk; cited from earlier work
P. aeruginosa ATCC 27853 = conditions: control limits, Gentamicin 10 mcg disk; cited from earlier work
[8] = Staphylococcus aureus, ATCC25923, 18 h, read-out: MIC

## Cc1cnc2cc3cncc(C)c3cc2c1 [Derivative No. 1]
[1]
  MIC: 64 µg/mL (≈ 307 µM)
[2]
  MIC: > 64 µg/mL
[3]
  MIC: 4 µg/mL (≈ 19.2 µM)
S. aureus ATCC 25923 [4]; 18 hrs, listed as 1,8-DAA-3,6-(Me)2.HCl
  MIC: 32 µg/mL (≈ 154 µM)
C. albicans ATCC 90028; RPMI-1640, listed as 1,8-DAA-3,6-(Me)2.HCl
  MIC: 64 µg/mL (≈ 307 µM)
ASPC-1
  IC50: 58 µg/mL
ZR-75-1
  IC50: 47.3 µg/mL
41-SK; listed as 1,8-DAA(Me)2 · HCl
  IC50: 139.2 µg/mL

## CC1NCc2cc3c(cc2C1c1ccccc1)CNC(C)C3c1ccccc1.Cl.Cl (centres unmarked) [1,2,3,4,6,7,8,9-octahydro-3,8-dimethyl-4,9-diphenyl-pyrido[3,4-g]isoquinoline dihydrochloride]
Hymenolepis nata
  anti-parasitic activity: has an anti-parasitic activity

## CN(C)C1C(=O)C(C(N)=O)=C(O)C2(O)C(=O)C3=C(O)c4c(O)cccc4C(C)(O)C3CC12 (centres unmarked) [Tetracycline]
S. aureus
  MIC: 0.5 to 32 µg/mL

## Cc1cc2cc3c(C)c[n+]([O-])cc3cc2[n+]([O-])c1 [Derivative No. 7]
S. aureus ATCC 25923 [4]; [8]
  MIC: 0.125 µg/mL (≈ 0.52 µM)
E. coli ATCC 25922 [5]
  MIC: 4 µg/mL (≈ 16.6 µM)
ASPC-1
  IC50: 9.3 µg/mL
ZR-75-1
  IC50: 1.9 µg/mL
41-SK; Homo sapiens, read-out: IC50
  IC50: 11.3 µg/mL

## Cc1cc2cc3c(C)c[n+](C)cc3cc2[n+](C)c1 [Example 8.4, N,N'-dimethyl-1,8-DAA-3,6-(Me)2 tetrafluoroborate hemihydrate]
ASPC-1
  IC50: 62.5 µg/mL
ZR-75-1
  IC50: 38.3 µg/mL
41-SK; Homo sapiens, read-out: IC50
  IC50: 35.9 µg/mL

## O=C(O)c1cn(C2CC2)c2cc(N3CCNCC3)c(F)cc2c1=O [Ciprofloxacin]
S. aureus
  MIC: 0.25 to 1 µg/mL

## Cc1cncc2cc3c(C)cncc3cc12 [Example 17]
S. aureus ATCC 25923 [4]; [8]
  MIC: 64 µg/mL (≈ 307 µM)

## Cc1cnc2c(c1)C(=O)c1c(C)cncc1C2=O [Example 14]
S. aureus ATCC 25923 [4]; [8]
  MIC: 1 µg/mL (≈ 4.2 µM)
C. albicans ATCC 90028; Candida albicans, ATCC90028, RPMI-1640, read-out: MIC
  MIC: 8 µg/mL (≈ 33.6 µM)
C. neoformans ATCC 90112
  MIC: 4 µg/mL (≈ 16.8 µM)
T. glabrata ATCC 90030
  MIC: 4 µg/mL (≈ 16.8 µM)

## CC1(C)S[C@@H]2[C@H](NC(=O)Cc3ccccc3)C(=O)N2[C@H]1C(=O)O [Penicillin]
S. aureus
  MIC: 8 to 16 µg/mL

## Gentamicin
S. aureus
  MIC: 0.25 to 16 µg/mL
E. coli ATCC 25922 [6]
  control zone diameter: 19-26 mm
S. aureus ATCC 25923 [7]
  control zone diameter: 19-27 mm
P. aeruginosa ATCC 27853
  control zone diameter: 16-21 mm
